This assay concerns Bmi-1 protein. The assay is described as follows: Sandwich ELISA Assay (Bmi-1 protein level in HT-1080 cells). The format is cell-based. Here is the method: Cell Seeding and Compound Treatment (Day 1):
HT-1080 cells were seeded at 8000 cells/well (50 μL) in 96-well tissue culture plates. After the cells became adherent (3-4 hours), 2× diluted stocks of test compounds in 50 μL DMEM containing 1% DMSO (final DMSO concentration was 0.5%) were added and the plates were incubated at 37° C. under 5% CO2 for 40-48 hours.
ELISA Plate First Antibody Preparation (Day 2):
The First Antibody (Millipore Mouse, monoclonal to mouse Bmi-1, clone F6, catalog #05-637) diluted to 2 μg/mL in PBS was added (100 μL) to each well of a Nunc MaxiSorp 96-well ELISA plate. The plate was covered with a plate seal and allowed to stand overnight.
Cell Lysate Preparation (Day 3):
Fresh Lysis buffer (1×) was prepared on the day of the assay as follows: 1 mM EDTA, 150 mM NaCl, 0.5% Triton-X 100, 10 mM NaF, 20 mM B-Glycerophosphate, 1 mM DTT (in PBS, pH 7.2-7.4) and HALT protease inhibitor cocktail (1×) (Pierce #78410).
Lysis Buffer (1×, 40 μL) was added to each well and the plate was shaken for 5-10 minutes on an orbital shaker to allow cell lysis, then diluent (1% BSA in PBS in 0.5% NP40) (100 μL) was added to each well.
A standard curve was prepared at the following Bmi-1 concentrations: 8000, 4000, 2000, 1000, 500, 250, 125 and 0 pg/mL. The Bmi-1 Recombinant Protein Standard (Novus Biologicals PCGF4 Recombinant Protein (P01), catalog # H00000648-P01) used to prepare the standard curve was stored at −80° C. On first thaw, the Recombinant Protein Standard was diluted to 10 μg/μL in Blocking Buffer (1% BSA in PBS; BSA: Fisher Scientific Catalog #1600-100). Aliquots were taken and refrozen at −80° C. The aliquots may be kept at 4° C. and reused after first thaw, but only within 1-2 weeks. The Recombinant Protein Standard contains a GST-fusion tag that appears at approximately 70 Kda on Western Blot.
The prepared ELISA plate was washed 3× with Wash Buffer (0.05% Tween-20 in PBS). The final wash was removed from the plate and the plate was blotted dry. Blocking Buffer (300 μL) (1% BSA in PBS) was added to each well. The plate was covered with a plate seal and incubated at room temperature for 1 hour. The blocked plate was washed 3× with Wash Buffer, then the final wash was removed and the plate was blotted dry. The previously prepared samples and standards were added (100 μL/well) and the plate was covered with a plate seal and incubated at 4° C. overnight.
The prepared ELISA plate was removed from incubation and allowed to stand at room temperature for 30 minutes, then washed and blotted dry. The Second Antibody (Cell Signaling Rabbit anti-Bmi-1, Cat#2830) diluted to 1:600 in Blocking Buffer was added (100 μL) to each well, except as needed for background control wells. The plate was covered with a plate seal and incubated for 1.5 hrs at room temperature.
The ELISA plate was washed and blotted dry as previously described. The Third Antibody (Cell Signaling HRP conjugated anti-rabbit IgG (CellSignaling, Cat#:7074) diluted to 1:300 in Blocking Buffer was added (100 μL) to each well, except as needed for background control wells. The plate was incubated for 1 hr at room temperature.
The plate was washed and blotted dry, then a previously prepared TMB substrate (TMB substrate kit, Pierce catalog #34021) (prepared by mixing kit reagents 1:1) (100 μL) was added per well. The plate was incubated for 20-30 minutes at room temperature in the dark, then Stop Solution (2 M sulfuric acid in water) (50 μL) was added per well. The plates were read at OD450 (experimental) and OD570 (reference).
On the technique in general: An ELISA detects its analyte on a solid surface through an enzyme-linked reagent.

In general, EC50 refers to the concentration needed to bring the measured effect to its halfway point. For `Cc1nc2ccc(F)cn2c1-c1cc(N)nc(Nc2ccc(C(F)(F)F)cc2)n1` [Cpd 1, 6-(6-fluoro-2-methylimidazo[1,2-a]pyridin-3-yl)-N^2-[4-(trifluoromethyl)phenyl]pyrimidine-2,4-diamine], the EC50 was in the range of 1 to 10 nM.
With `Cc1nn(C)c(C)c1-c1cc(N)nc(Nc2ccc(C(F)(F)F)cc2)n1` [Cpd 3, N^2-[4-(trifluoromethyl)phenyl]-6-(1,3,5-trimethyl-1H-pyrazol-4-yl)pyrimidine-2,4-diamine] the figure was 1 to 10 nM.
On to `Cc1nc2ccc(F)cc2n1-c1cc(N)nc(Nc2ccc(C(F)(F)F)cc2)n1` [Cpd 4, 6-(6-fluoro-2-methyl-1H-benzimidazol-1-yl)-N^2-[4-(trifluoromethyl)phenyl]pyrimidine-2,4-diamine], for which the half-maximal effective concentration (EC50) was 10 to 100 nM.
In the case of `Cc1nc2ccccc2n1-c1cc(Cl)nc(Nc2ccc(C(F)(F)F)cc2)n1` [Cpd 6, 4-chloro-6-(2-methyl-1H-benzimidazol-1-yl)-N-[4-(trifluoromethyl)phenyl]pyrimidin-2-amine], the EC50 was 100 to 3000 nM.
The compound `Cc1nc2ccccc2n1-c1cc(N)nc(Nc2ccc(C(F)(F)F)cc2)n1` [Cpd 7, 6-(2-methyl-1H-benzimidazol-1-yl)-N^2-[4-(trifluoromethyl)phenyl]pyrimidine-2,4-diamine] returned an EC50 of 10 to 100 nM.
Compound `Cc1nc2ccccc2n1-c1cc(Cl)nc(Nc2ccc(C(F)(F)F)c(F)c2)n1` [Cpd 8, 4-chloro-N-[3-fluoro-4-(trifluoromethyl)phenyl]-6-(2-methyl-1H-benzimidazol-1-yl)pyrimidin-2-amine] gave a 50% effective concentration (EC50) of 100 to 3000 nM.
Turning to `Nc1cc(-c2c(C3CC3)nc3ccc(F)cn23)nc(Nc2ccc(OC(F)F)c(F)c2)n1` [Cpd 9, 6-(2-cyclopropyl-6-fluoroimidazo[1,2-a]pyridin-3-yl)-N^2-[4-(difluoromethoxy)-3-fluorophenyl]pyrimidine-2,4-diamine], the EC50 was 1 to 10 nM.
`Cc1nc2ccc(F)cc2n1-c1cc(N)nc(Nc2ccc(OC(F)F)c(F)c2)n1` [Cpd 10, N^2-[4-(difluoromethoxy)-3-fluorophenyl]-6-(6-fluoro-2-methyl-1H-benzimidazol-1-yl)pyrimidine-2,4-diamine] yielded an EC50 of 10 to 100 nM.
For `Cc1nc2ccccc2n1-c1cc(N)nc(Nc2ccc(C(F)(F)F)c(F)c2)n1` [Cpd 13, N^2-[3-fluoro-4-(trifluoromethyl)phenyl]-6-(2-methyl-1H-benzimidazol-1-yl)pyrimidine-2,4-diamine], the EC50 lay in the range of 100 to 3000 nM.
The result for `Cc1nc2ccccc2n1-c1cc(N)nc(Nc2ccc(OC(F)F)c(F)c2)n1` [Cpd 14, N^2-[4-(difluoromethoxy)-3-fluorophenyl]-6-(2-methyl-1H-benzimidazol-1-yl)pyrimidine-2,4-diamine] reads 10 to 100 nM; that for `Cc1nc2ccccc2n1-c1cc(NCCO)nc(Nc2ccc(C(F)(F)F)cc2)n1` [Cpd 15, 2-{[6-(2-methyl-1H-benzimidazol-1-yl)-2-{[4-(trifluoromethyl)phenyl]amino}pyrimidin-4-yl]amino}ethanol], 100 to 3000 nM; that for `Cc1nc2ccccc2n1-c1cc(NCCO)nc(Nc2ccc(C(F)(F)F)c(F)c2)n1` [Cpd 16, 2-{[2-{[3-fluoro-4-(trifluoromethyl)phenyl]amino}-6-(2-methyl-1H-benzimidazol-1-yl)pyrimidin-4-yl]amino}ethanol], 100 to 3000 nM.
Turning to `Cc1nc2ccccc2n1-c1cc(NCCO)nc(Nc2ccc(OC(F)F)c(F)c2)n1` [Cpd 17, 2-{[2-{[4-(difluoromethoxy)-3-fluorophenyl]amino}-6-(2-methyl-1H-benzimidazol-1-yl)pyrimidin-4-yl]amino}ethanol], the EC50 fell in the range of 100 to 3000 nM.
The result for `Cc1nc2cc(F)c(F)cc2n1-c1cc(Cl)nc(Nc2ccc(C(F)(F)F)cc2)n1` [Cpd 18, 4-chloro-6-(5,6-difluoro-2-methyl-1H-benzimidazol-1-yl)-N-[4-(trifluoromethyl)phenyl]pyrimidin-2-amine] reads 100 to 3000 nM; that for `Cc1nc2cc(F)c(F)cc2n1-c1cc(Cl)nc(Nc2ccc(C(F)(F)F)c(F)c2)n1` [Cpd 19, 4-chloro-6-(5,6-difluoro-2-methyl-1H-benzimidazol-1-yl)-N-[3-fluoro-4-(trifluoromethyl)phenyl]pyrimidin-2-amine], 100 to 3000 nM.
The result for `Cc1nc2cc(F)c(F)cc2n1-c1cc(N)nc(Nc2ccc(C(F)(F)F)cc2)n1` [Cpd 20, 6-(5,6-difluoro-2-methyl-1H-benzimidazol-1-yl)-N^2-[4-(trifluoromethyl)phenyl]pyrimidine-2,4-diamine] reads 10 to 100 nM; that for `Cc1nc2cc(F)c(F)cc2n1-c1cc(NCCO)nc(Nc2ccc(C(F)(F)F)cc2)n1` [Cpd 21, 2-{[6-(5,6-difluoro-2-methyl-1H-benzimidazol-1-yl)-2-{[4-(trifluoromethyl)phenyl]amino}pyrimidin-4-yl]amino}ethanol], 100 to 3000 nM.
With `Cc1nc2ccccc2n1-c1cc(NO)nc(Nc2ccc(C(F)(F)F)cc2)n1` [Cpd 22, N^4-hydroxy-6-(2-methyl-1H-benzimidazol-1-yl)-N^2-[4-(trifluoromethyl)phenyl]pyrimidine-2,4-diamine] the figure was 10 to 100 nM.
Compound `CCc1nc2ccccc2n1-c1cc(N)nc(Nc2ccc(C(F)(F)F)cc2)n1` [Cpd 23, 6-(2-ethyl-1H-benzimidazol-1-yl)-N^2-[4-(trifluoromethyl)phenyl]pyrimidine-2,4-diamine] displayed an EC50 of 10 to 100 nM.
With `Cc1nc2cc(F)c(F)cc2n1-c1cc(N)nc(Nc2ccc(C(F)(F)F)c(F)c2)n1` [Cpd 24, 6-(5,6-difluoro-2-methyl-1H-benzimidazol-1-yl)-N^2-[3-fluoro-4-(trifluoromethyl)phenyl]pyrimidine-2,4-diamine] the figure was 100 to 3000 nM.
With `Nc1cc(-c2ccnc3ccccc23)nc(Nc2ccc(C(F)(F)F)cc2)n1` [Cpd 25, 6-(quinolin-4-yl)-N^2-[4-(trifluoromethyl)phenyl]pyrimidine-2,4-diamine] the figure was 100 to 3000 nM; with `CCc1nc2ccc(F)cc2n1-c1cc(N)nc(Nc2ccc(C(F)(F)F)cc2)n1` [Cpd 26, 6-(2-ethyl-6-fluoro-1H-benzimidazol-1-yl)-N^2-[4-(trifluoromethyl)phenyl]pyrimidine-2,4-diamine], 10 to 100 nM; with `Nc1cc(-n2c(C3CC3)nc3ccc(F)cc32)nc(Nc2ccc(C(F)(F)F)cc2)n1` [Cpd 27, 6-(2-cyclopropyl-6-fluoro-1H-benzimidazol-1-yl)-N^2-[4-(trifluoromethyl)phenyl]pyrimidine-2,4-diamine], 10 to 100 nM.
Turning to `Nc1cc(-c2c(CO)nc3ccccn23)nc(Nc2ccc(C(F)(F)F)cc2)n1` [Cpd 28, [3-(6-amino-2-{[4-(trifluoromethyl)phenyl]amino}pyrimidin-4-yl)imidazo[1,2-a]pyridin-2-yl]methanol], the EC50 was 1 to 10 nM.
With `Nc1cc(-c2c(CO)nc3ccc(F)cn23)nc(Nc2ccc(C(F)(F)F)cc2)n1` [Cpd 29, [3-(6-amino-2-{[4-(trifluoromethyl)phenyl]amino}pyrimidin-4-yl)-6-fluoroimidazo[1,2-a]pyridin-2-yl]methanol] the figure was 10 to 100 nM; with `Cc1nc2ccccc2n1-c1cc(Cl)nc(Nc2ccc(OC(F)F)c(F)c2)n1` [Cpd 30, 4-chloro-N-[4-(difluoromethoxy)-3-fluorophenyl]-6-(2-methyl-1H-benzimidazol-1-yl)pyrimidin-2-amine], 100 to 3000 nM.

These data come from patent US10370371B2, “Substituted pyrimidine Bmi-1 inhibitors” (PTC Therapeutics, Inc., priority 2013, dated 2019).
